Results from patent publication US6956030B2, “Use of mometasone furoate for treating upper airway diseases” (Schering Corporation, priority 1994, dated 2005).
Marks after values point to notes of the source that are not given here.

How the values were obtained:
plasma cortisol = experiment: Phase I rising single-dose safety and tolerance study, metered dose inhaler, 24-hour plasma cortisol; type: in vivo, healthy male volunteers
Experimental: Several Phase I studies were conducted using mometasone furoate formulated for delivery as a suspension in a pressurized metered dose inhaler (MDI). In a randomized, third-party blinded, placebo-controlled rising single-dose safety and tolerance study, aerosolized mometasone furoate was administered by a metered dose inhaler to eight healthy male volunteers. Doses were administered at 11 p.m. and plasma cortisol concentrations were measured during the following 24-hour period.

[1] = cited from earlier work; for efficacy in treating asthma in clinical trials: clinical trials / Phase II; for systemic side effects: in vivo
[2] = HPLC/radio-flow metabolite profiling of plasma, urine and fecal extracts after ^3H-MF; type: in vivo, normal healthy male volunteers
Description: The substantial minimization of the systemic effect of mometasone furoate administered intranasally or by oral inhalation has been measured by High Performance Liquid Chromatography (HPLC) metabolite profiling of plasma radioactivity of mometasone furoate, its substantially complete (>98%) first-pass metabolism in the liver and by a minimal reduction in cortisol secretion levels.
(§1) Plasma, urine, expired air filters, Respirgard and fecal samples were collected and assayed for radioactivity content. The limit of quantitation (LOQ) for plasma radioactivity ranged from 0.103 to 0.138 ng eq/ml., except for the nasal spray treatment where the LOQ was 0.025 ng eq/ml. Selected plasma, urine and fecal samples were analyzed for metabolite profiles.
Selected plasma, urine and fecal extracts were analyzed by high performance liquid chromatography (HPLC) with radio-flow monitoring to determine metabolite profiles. […] Approximately 1.5% of the 3 hr. plasma radioactivity was associated with parent drug indicating extensive first past metabolism and rapid inactivation by the liver. In contrast, following intravenous administration, approximately 39% of the 3 hr. plasma radioactivity was associated with parent drug. Approximately 12% and 33% of the 3 hr. plasma radioactivity was associated with parent drug following administration of the MDI and Gentlehaler, respectively. In general, the plasma concentrations of radioactivity following the nasal and oral suspension routes of administration were too low for metabolite profiling.
Hydrolysis of plasma and urine was performed with an enzyme preparation containing both β-glucuronidase and aryl sulfatase. These experiments yielded modest changes in the HPLC metabolite profiles that were consistent with the hydrolytic release of conjugated metabolites.

[3] = Drug metabolism/clinical pharmacology study: absorption and excretion of total radioactivity after ^3H-MF by various routes; type: in vivo, normal healthy male volunteers; conditions: for AUC (1) of total radioactivity, dose normalized / Cmax of total radioactivity, dose normalized: based on dose normalized data; for percent of dose as tritiated water in the body: estimated from urinary distillation experiments
Experimental: In addition, a single-dose absorption, excretion and metabolism study using 200 mcg of ^3H-mometasone furoate as the nasal spray formulation was conducted in 6 normal male volunteers. When systemic absorption (based on urinary excretion) was compared to an intravenously administered dose of ^3H-mometasone furoate, it was 8%.
A drug metabolism and clinical pharmacology study was conducted by administering (by various routes) tritium-labeled mometasone furoate (“^3H-MF”) to 6 groups of 6 normal male volunteers in each group. Blood and urine samples were collected for measurement of total drug (including metabolites).
The objectives of these studies in male volunteers were to determine the absorption, metabolism and excretion of ^3H-labeled mometasone furoate (“^3H-MF”) following administration by oral swallow as a solution and as an aqueous suspension of the monohydrate, by oral inhalation as a suspension from a standard metered dose inhaler (MDI) and from a metered dose inhaler containing a spacer device (Gentlehaler), by nasal inhalation as an aqueous suspension of the mometasone furoate monohydrate from a nasal spray unit and by intravenous injection as a solution.
Thirty-six (n=6 per treatment group) normal healthy male volunteers between the ages of 19 and 40 yr. (average 29 yr.) having weights in accordance with current actuarial tables (+10%) were enrolled in these single dose studies. All subjects were determined to be in good health by their medical history, physical examinations, clinical and laboratory tests.
as §1
Pharmacokinetics—The mean (n=6) plasma concentrations of total radioactivity are illustrated in Summary FIG. 1 and the mean (n=6) pharmacokinetic parameters derived from total plasma radioactivity are presented in Table 2.

[4] = of the inhalation dose; cited from earlier work

For `CCC(=O)OCC(=O)[C@@]1(OC(=O)CC)[C@@H](C)C[C@H]2[C@@H]3CCC4=CC(=O)C=C[C@]4(C)[C@@]3(Cl)[C@@H](O)C[C@@]21C` [beclomethasone dipropionate], the “reduction of 24-hour area under the curve plasma cortisol profile (AUC 0-24) compared to placebo” value (from here on “reduction of 24-hour area”) (plasma cortisol; single dose 1000 mcg by MDI at 11 p.m.) was 30%, the “reduction of 24-hour area” value (plasma cortisol; single dose 2000 mcg by MDI at 11 p.m.) was 38% and the “reduction of 24-hour area” value (plasma cortisol; single dose 4000 mcg by MDI at 11 p.m.) was 65%.

In the case of `CCS[C@]1(SC)CC[C@H]2[C@@H]3CCC4=CC(=O)C=C[C@]4(C)[C@@]3(F)[C@@H](O)C[C@@]21C` [tipredane], the “efficacy in treating asthma in clinical trials” value [1] is given as “have not demonstrated a level of efficacy in treating asthma which would be considered therapeutically useful” and the systemic side effects [1] is given as “low systemic side effects”.

In the case of `C[C@@H]1C[C@H]2[C@@H]3CCC4=CC(=O)C=C[C@]4(C)[C@@]3(Cl)[C@@H](O)C[C@]2(C)[C@@]1(OC(=O)c1ccco1)C(=O)CCl` [^3H-MF], the “3 hr. plasma radioactivity associated with parent drug” value (“3 hr. plasma radioactivity associated” below) ([2]; Gentlehaler) is reported as about 33%, the urine metabolite profile ([2]; Gentlehaler) is reported as “all of the radioactivity was associated with metabolites more polar than parent drug” and the “3 hr. plasma radioactivity associated” value ([2]; MDI) is reported as “Approximately 12%”. For the same molecule, the “3 hr. plasma radioactivity associated” value ([2]; intravenous) was “approximately 39%”, the “urinary and fecal extract metabolite profile” value ([2]; intravenous and oral solution) was “all of the radioactivity was associated with metabolites more polar than parent drug” and the “fecal extract metabolite profile” value ([2]; nasal spray, oral suspension, MDI and Gentlehaler) was “presence primarily of mometasone furoate”. The “3 hr. plasma radioactivity associated” value ([2]; oral solution) was “Approximately 1.5%”, the plasma metabolite profile ([2]; oral solution) was “most of the plasma radioactivity was associated with metabolites more polar than the available standards” and the “% Absorbed (AUC): radioactivity absorbed, dose normalized versus intravenous data” value ([3]; Gentlehaler) was 69* %. For the same molecule, the “% Absorbed (Urine): radioactivity absorbed, urinary excretion compared to the intravenous dose” value (“% Absorbed (Urine)” for short) ([3]; Gentlehaler) was 67%, the “Feces (% dose): administered radioactivity excreted in feces through 168 hr” value (from here on “Feces (% dose)”) ([3]; Gentlehaler) was 89% and the “U + F (% dose): total dose recovered in urine and feces through 168 hr” value (shortened to “U + F (% dose): total dose recovered”) ([3]; Gentlehaler) was 105%. The “Urine (% dose): administered radioactivity excreted in the urine through 168 hr” value ([3]; Gentlehaler) was about 16%, the “absorption of drug-derived radioactivity (dose normalized AUC and urinary excretion data)” value ([3]; Gentlehaler) was 67-69% and the “AUC (1) of total radioactivity to infinity” value (“AUC … to infinity” for short) ([3]; Gentlehaler 0.40 mg) was 110 ng eq hr/ml. The “AUC (1) of total radioactivity, dose normalized” value ([3]; Gentlehaler) was 275 ng eq hr/ml, the “Cmax of total radioactivity, dose normalized” value ([3]; Gentlehaler) was 1.71 ng eq/ml and the “% Absorbed (AUC): radioactivity absorbed, dose normalized versus intravenous data” value ([3]; MDI) was 23* %. The “% Absorbed (Urine)” value ([3]; MDI) was 30%, the “Feces (% dose)” value ([3]; MDI) was 86% and the “U + F (% dose): total dose recovered” value ([3]; MDI) was 94%. For the same molecule, the “Urine (% dose): administered radioactivity excreted in the urine through 168 hr” value ([3]; MDI) was about 7%, the “absorption of drug-derived radioactivity (dose normalized AUC and urinary excretion data)” value ([3]; MDI) was 23-30% and the “AUC … to infinity” value ([3]; MDI 0.86 mg) was 81 ng eq hr/ml. For the same molecule, the “AUC (1) of total radioactivity, dose normalized” value ([3]; MDI) was 94 ng eq hr/ml, the “Cmax of total radioactivity, dose normalized” value ([3]; MDI) was 0.93 ng eq/ml and the “tritium label exchanged with body water” value ([3]; human, in vivo) was “less than 4%”. For the same molecule, the “Feces (% dose)” value ([3]; intravenous) was 54%, the “U + F (% dose): total dose recovered” value ([3]; intravenous) was 78% and the “AUC … to infinity” value ([3]; intravenous solution 1.03 mg) was 401 ng eq hr/ml. The “Cmax (C5min) of total radioactivity” value ([3]; intravenous solution 1.03 mg, mean n=6) was 23.7 ng eq/ml, the “percent of dose as tritiated water in the body” value ([3]; intravenous) was “approximately 3.7%” and the “Feces (% dose)” value ([3]; nasal spray) was 78%. For the same molecule, the “U + F (% dose): total dose recovered” value ([3]; nasal spray) was 80%, the “AUC … to infinity” value ([3]; nasal spray 0.19 mg) was “BQL” and the “Cmax of total radioactivity” value ([3]; nasal spray 0.19 mg, LOQ 0.025 ng eq/ml) was “BQL**”. The “Cmax of total radioactivity” value ([3]; nasal spray 0.19 mg, LOQ 0.025 ng eq/ml, listed as 3H-mometasone furoate) was “below the limit of quantification”, the “% Absorbed (Urine)” value ([3]; nasal spray, listed as 3H-mometasone furoate) was 8% and the “% Absorbed (AUC): radioactivity absorbed, dose normalized versus intravenous data” value ([3]; oral solution) was 122%. The “% Absorbed (Urine)” value ([3]; oral solution) was 104%, the “Feces (% dose)” value ([3]; oral solution) was 62% and the “U + F (% dose): total dose recovered” value ([3]; oral solution) was 87%. For the same molecule, the “AUC … to infinity” value ([3]; oral solution 1.03 mg) was 488 ng eq hr/ml, the “Cmax of total radioactivity” value ([3]; oral solution 1.03 mg, mean n=6) was 4.8 ng eq/ml and the “percent of dose as tritiated water in the body” value ([3]; oral solution) was about 2.9%. For the same molecule, the “Feces (% dose)” value ([3]; oral suspension) was 73%, the “U + F (% dose): total dose recovered” value ([3]; oral suspension) was 75% and the “AUC … to infinity” value ([3]; oral suspension 0.99 mg) was “BQL”. The “Cmax of total radioactivity” value ([3]; oral suspension 0.99 mg, LOQ 0.103 to 0.138 ng eq/ml) was “BQL” and the “route of excretion of radioactivity” value ([3]; regardless of dosage form and route of administration) was “predominantly excreted in the feces”.

For `CCCC(=O)O[C@]1(C(=O)CSC(=O)CC)CC[C@H]2[C@@H]3CCC4=CC(=O)CC[C@]4(C)[C@H]3[C@@H](O)C[C@@]21C` [butixocort propionate], the “efficacy in treating asthma in clinical trials” value [1] is given as “some efficacy” and the systemic side effects [1] is given as “low systemic side-effects”.

For `CCCC1O[C@@H]2C[C@H]3[C@@H]4CCC5=CC(=O)C=C[C@]5(C)[C@H]4[C@@H](O)C[C@]3(C)[C@]2(C(=O)CO)O1` (stereo partly shown) [budesonide], the “systemic bioavailability after oral ingestion” value [4] is given as “greater than 10%”.
